The values below are quoted from earlier work in patent publication US20070066580A1, “Novel aldosterone antagonists and uses thereof” (Recordati Ireland Limited, priority 2005, published 2007).

One data set deals with T1, MR (Homo sapiens, UniProt P08235).
T1 sequence (P08235 1-984): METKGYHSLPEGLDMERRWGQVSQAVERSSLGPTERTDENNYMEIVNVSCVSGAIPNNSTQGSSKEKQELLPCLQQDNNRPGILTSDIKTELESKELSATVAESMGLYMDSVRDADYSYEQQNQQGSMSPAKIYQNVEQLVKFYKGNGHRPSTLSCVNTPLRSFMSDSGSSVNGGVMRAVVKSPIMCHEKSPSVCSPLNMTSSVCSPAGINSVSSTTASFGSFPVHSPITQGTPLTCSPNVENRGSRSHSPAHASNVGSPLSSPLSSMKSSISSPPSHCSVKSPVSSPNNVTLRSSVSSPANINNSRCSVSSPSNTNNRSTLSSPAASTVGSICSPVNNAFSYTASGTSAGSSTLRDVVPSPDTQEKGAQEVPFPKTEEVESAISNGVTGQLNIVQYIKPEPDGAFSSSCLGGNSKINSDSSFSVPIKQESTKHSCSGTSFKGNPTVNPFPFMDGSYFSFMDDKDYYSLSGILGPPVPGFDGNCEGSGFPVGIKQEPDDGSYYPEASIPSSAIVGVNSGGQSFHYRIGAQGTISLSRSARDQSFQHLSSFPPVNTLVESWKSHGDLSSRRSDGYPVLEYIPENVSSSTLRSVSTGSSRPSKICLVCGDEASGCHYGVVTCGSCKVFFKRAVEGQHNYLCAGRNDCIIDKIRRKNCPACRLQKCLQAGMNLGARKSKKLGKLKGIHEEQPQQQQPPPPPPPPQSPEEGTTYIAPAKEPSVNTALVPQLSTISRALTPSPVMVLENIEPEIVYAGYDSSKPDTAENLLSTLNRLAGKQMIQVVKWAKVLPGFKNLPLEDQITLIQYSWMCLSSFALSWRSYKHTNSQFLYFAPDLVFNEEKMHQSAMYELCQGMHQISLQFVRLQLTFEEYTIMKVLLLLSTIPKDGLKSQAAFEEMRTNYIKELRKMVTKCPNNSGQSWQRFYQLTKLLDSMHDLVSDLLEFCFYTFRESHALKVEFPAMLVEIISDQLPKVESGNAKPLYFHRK
Conditions: cited from earlier work.

The conditions of data set [1]: cited from earlier work.
For data set [2] the following is noted: severe heart failure (NYHA class IV), plus diuretics, versus placebo plus diuretics; cited from earlier work.

Structures are written as SMILES.

Consider `C[C@]12C=CC(=O)C=C1[C@@H]1C[C@@H]1[C@H]1[C@@H]3[C@@H]4C[C@@H]4[C@@]4(CCC(=O)O4)[C@@]3(C)CC[C@@H]12` [spirorenone], for which the “antimineralocorticoid potency, times more potent than spironolactone” value at MR is listed as “approximately 7.5 times”. Turning to `CC(=O)S[C@@H]1CC2=CC(=O)C=C[C@]2(C)[C@H]2CC[C@@]3(C)[C@@H]([C@@H]4C[C@@H]4[C@@]34CCC(=O)O4)[C@H]12` [Mespirenone], the “anti-MR effectiveness compared with spironolactone” value at MR is recorded as “about three times higher”. In the case of `C[C@]12CCC(=O)C=C1[C@@H]1C[C@@H]1[C@H]1[C@@H]3[C@@H]4C[C@@H]4[C@@]4(CCC(=O)O4)[C@@]3(C)CC[C@@H]12`, the “antimineralocorticoid potency, times more potent than spironolactone” value on MR is on record as “approximately 7.5 times”. In the case of `COC(=O)[C@@H]1CC2=CC(=O)CC[C@]2(C)[C@@]23O[C@@H]2C[C@@]2(C)[C@@H](CC[C@@]24CCC(=O)O4)[C@H]13` [eplerenone], the “potency in vivo as % of spironolactone” value in data set [1] is 50-75%.

`CCOC(=O)[C@H](CCc1ccccc1)N[C@@H](C)C(=O)N1CCC[C@H]1C(=O)O` [enalapril]: in data set [2], the “reduction of mortality at one year” value is on record as 31%.
